pIC50: −log10 of the molar value.
Columns and labels:
[1] = system: Panc1 cells; test: Cell viability by Methylene Blue test, siRNA alone and with Gemzar; format: cell-based, human; conditions: 72 h; 1 hr of treatment with 10 μM Gemzar after transfection
Experimental: FIG. 15. Gemzar® enhances siG12D-DDD effect. Panc1 cells were transfected using Lipofectamine™ with unmodified and modified siG12D and a scrambled (non-targeting) siRNA control molecule or were mock transfected (no siRNA). Cell viability was assessed 72 hrs post-transfection by the Methylene Blue (MB) test. Additional groups were transfected as described above, followed by 1 hr of treatment with 10 μM Gemzar®. The numbers 1-4 in the last column relate to the percent of inhibition of cellular growth, wherein the inhibition seen with the unmodified siRNA was assigned the value of 100%. 4, 3, 2, and 1 refer respectively to 75-100%, 50-75%, 25-50%, and 0-25% of the inhibition seen with the unmodified siRNA.
Experimental procedure: Panc1 cells were transfected using Lipofectamine™ with unmodified and modified siG12D and a scrambled (non-targeting) siRNA control molecule or were mock transfected (no siRNA). Cell viability was assessed 72 hrs post-transfection by the Methylene Blue (MB) test. Additional groups were transfected as described above, followed by 1 hr of treatment with 10 μM Gemzar®. At the exemplary time point of 72 h, Gemzar® enhanced the effect of siG12D by nearly 10% (FIG. 15). […] Other time points, for example 48h, 72 h, 96 h and 120 h, may be utilized in additional studies.

[2] = system: Panc1 cells; format: cell-based, human
Experimental: FIG. 18. Chart showing viability of Panc1 cells. Vertical axis: viability as a percentage of the viability of mock-transfected cells, 72 hours following transfection with the indicated siRNA. Dotted line indicates 50% reduction in viability. For all the differences, p<0.05 relative to the mock-transfected cells.
The effect of siRNA-mediated down-regulation of EMT-related genes on viability of Panc1 cancer cells was measured as follows: siRNAs targeting the indicated genes, namely SLUG (SNAI2), SNAI1 TWIST, Zeb1, Zeb2, Goosecoid, and E12 (TCF3), were designed and synthetized by IDT-Syntezza, using 2 different siRNA's per target (Table 3). Panc1 cells were transfected with the siRNAs using Lipofectamine®. 72 hrs post-transfection, cell viability was tested by Methylene blue (MB) assay. Gemzar® was used as a positive control for cell killing.

[3] = system: P-Erk; test: Western blot of KRAS downstream effector P-Erk; format: cell-based, human; conditions: 36 hrs after transfection, normalized to β-actin
Description: (§1) FIG. 19. Treatment with anti-k-ras siRNA reduces levels of downstream effector proteins. Panc1 cells were left untreated (u/t) or transiently transfected with siG12D, non-targeting scrambled siRNA (si-scr) or mock transfected. A. Shown are representative blots of KRAS, P-Erk, P-Akt, and β-actin. B. Quantitation of protein expression, expressed as average±S.E.M. Numbers were normalized to the level of β-actin, then the resulting number was normalized to the expression in scrambled siRNA-transfected cells, which was set as 100%. Student's t-test was used to calculate(p) compared to mock-transfected cells.
(§2) To confirm the specific action of siG12D on the K-ras signaling pathway, KRAS, level of activation of the KRAS downstream effectors ERK and Akt was measured following treatment with siG12D. […] 36 hrs after transfection, cells were lysed and relative levels of KRAS, P-Erk and P-Akt proteins were assessed by Western blot analysis. […]
(§3) Western blot assays were carried by homogenizing cells in lysis buffer A (0.25M sucrose, 20 mM Tris pH 7.6, 1.5 mM MgCl2, 10% glycerol, 1 mM EDTA and “cOmplete mini” protein inhibitor cocktail (Roche Diagnostics)), incubated on ice for 10 min, centrifuged at 12,000 rpm for 15 min at 4° C., and supernatants were collected. […] Results are expressed as ratio of protein of interest/β-actin to correct for amount of protein loaded in each sample.

[4] = system: normal rats; test: Toxicity study of LODER-driven siRNA in normal rats; format: in vivo; conditions: intraperitoneally injected
Experimental: (§4) To study the toxic potential of the LODER-driven siRNA, we compared the effect of the siG12D LODER (16, 32 and 64 μg siG12D/kg weight) to that of the empty LODER and to sham-operated or untreated animals. LODERs were implanted into the pancreas of normal mice and rats, both males and females of both species. In parallel, the same and higher doses of siG12D were intraperitoneally injected into normal mice and rats (16, 160 and 320 μg siG12D/kg weight). The duration of this study was 2 weeks in mice and 8 weeks in rats. […] Based on the lack of adverse reaction following siRNA treatment, the maximum dose of 0.32 mg siRNA/kg body weight was considered as not constituting an acute toxicity risk.

[5] = system: normal mice; test: Toxicity study of LODER-driven siRNA in normal mice; format: in vivo; conditions: intraperitoneally injected
Experimental: as §4

[6] = system: PancO2 cell; test: PancO2 cell growth in vitro; format: cell-based, mouse
[7] = system: K-ras mRNA; conditions: read-out: K-ras mRNA levels, half-maximal inhibitory concentration (IC50); Panc1 cells transfected; Real-Time PCR, HPRT and UBC endogenous controls
Experimental: Panc1 cells, human pancreatic carcinoma cells that carry the […] in the K-ras gene, were mock-transfected or transfected with siG12D or control scrambled siRNA (si-scr). The relative K-ras mRNA levels were assessed by Real-Time PCR, with Hypoxantine PhosphoRybosyl Transferase (HPRT) and Ubiquitin C (UBC) used as endogenous controls.

[8] = system: P-Akt; test: Western blot of KRAS downstream effector P-Akt; format: cell-based, human; conditions: 36 hrs after transfection, normalized to β-actin
Description: as §1, §2, §3

[9] = system: Zeb1, Slug, E-Cadherin; test: Expression of genes characteristic of EMT; format: cell-based, human; conditions: in vitro, normalized to the untreated cells
Description: FIG. 9. Effect of the siG12DDDD on expression levels of metastasis-facilitating genes. Expression levels are normalized to the untreated cells.
Treatment of siG12D in vitro was followed by measurement of genes whose expression (high or low) is characteristic of EMT.

[10] = system: Panc1 cells; test: Migration assay (modified Boyden chamber); format: cell-based, human; conditions: transfected cells, relative to untreated cells
[11] = system: Akt; test: Orthotopic Panc1-LUC tumors, Akt immunohistochemistry; format: in vivo, human; conditions: 39 days post-treatment, IH
Experimental: For this purpose, Panc1-LUC or Capan1-LUC cells were injected into the tail of the mouse pancreas via an incision. Tumor development was assessed by in vivo Luciferase activity. […] Two LODERs were stitched to the pancreatic tumor via a laparotomy.
Here, tumor tissues were tested from mice bearing pancreatic Panc1-LUC-derived tumors from 4 treatment groups: untreated, injected with siG12D or implanted with empty LODERs or siG12D LODERs. Thirty nine days post-treatment, we performed IH analysis of tumor tissues for Akt and ERK.

[12] = system: Panc-1 cells; test: Scratch assay; format: cell-based, human; conditions: after 24 hours, light microscopy
Experimental: FIG. 7. siG12D reduces EMT in Panc1 cells. A. Migration assay. Panc-1 cells were transfected with siG12D or non-targeting control (scrambled) or were treated with TGFβ (positive control). The migration ability was assessed using a modified Boyden chamber assay. The percentage of migrated cells relative to untreated cells is presented. B. Scratch assay. Panc-1 cells were mock-transfected or transfected in vitro with scrambled siRNA or siG12D, then were seeded in 6 W plates. After 24 hours, the cells were reseeded in 24 W plates to form a confluent culture. One day after reseeding, the cells were scratched with a plastic tip. […]
FIG. 8. Light microscopy images of migration of siG12D-DDD treated cells in a scratch assay, showing the inhibitory effect of siG12D on cellular migration.
In order to study the effects of siG12D on the EMT process and its consequent increased cellular migration and motility, we conducted a series of experiments in which we examined different aspects of this process. We analyzed the migration characteristics of Panc1 cells following transfection with siG12D or scrambled siRNA, using the scratch and transwell-migration assays. TGF-β was used as a positive control. […] To test migration through a scratch assay. […]

Nc1ccn([C@@H]2O[C@H](CO)[C@@H](O)C2(F)F)c(=O)n1 [Gemzar®, 2′,2′-difluorodeoxycytidine]
enhancement of the effect of siG12D on cell viability [1]: ~10%

Goosecoid-1: siRNA targeting Goosecoid; sense agcauguucagcaucgacadTdT, antisense ugucgaugcugaacaugcudTdT; SEQ ID No's 127-128 (sense AGCAUGUUCAGCAUCGACATT; antisense UGUCGAUGCUGAACAUGCUTT; DNA at 20, 21, other sugars and backbone not given here)
reduction in viability [2]: ~50%

SNAI1-2: siRNA targeting SNAI1; sense augcacauccgaagccacadTdT, antisense uguggcuucggaugugcaudTdT; SEQ ID No's 124-125
reduction in viability [2]: greater than 50%

SNAI2-2: siRNA targeting SLUG (SNAI2); sense cuggucaagaagcauuucadTdT, antisense ugaaaugcuucuugaccagdTdT; SEQ ID No's 104-105 (sense CUGGUCAAGAAGCAUUUCATT; antisense UGAAAUGCUUCUUGACCAGTT; DNA at 20, 21, other sugars and backbone not given here)
reduction in viability [2]: ~50%

TCF3-1: siRNA targeting E12 (TCF3); sense cuccuggacuucagcaugadTdT, antisense ucaugcugaaguccaggagdTdT; SEQ ID No's 131-132 (sense CUCCUGGACUUCAGCAUGATT; antisense UCAUGCUGAAGUCCAGGAGTT; DNA at 20, 21, other sugars and backbone not given here)
reduction in viability [2]: greater than 50%

TWIST-2: siRNA targeting TWIST; sense ggugugcguccagccguugdTdT, antisense caacggcuggacgcacaccdTdT; SEQ ID No's 108-109 (sense GGUGUGCGUCCAGCCGUUGTT; antisense CAACGGCUGGACGCACACCTT; DNA at 20, 21, other sugars and backbone not given here)
reduction in viability [2]: greater than 50%

Zeb1-2: siRNA targeting Zeb1; sense cagguguaagcgcagaaagdTdT, antisense cuuucugcgcuuacaccugdTdT; SEQ ID No's 112-113 (sense CAGGUGUAAGCGCAGAAAGTT; antisense CUUUCUGCGCUUACACCUGTT; DNA at 20, 21, other sugars and backbone not given here)
reduction in viability [2]: ~50%

siG12D: siRNA against K-ras G12D; sense GUUGGAGCUGAUGGCGUAGdTdT, antisense CUACGCCAUCAGCUCCAACdTdT (SEQ ID No: 41-42) (sense GUUGGAGCUGAUGGCGUAGTT; antisense CUACGCCAUCAGCUCCAACTT; DNA at 20, 21, other sugars and backbone not given here)
level of P-Erk [3]: decreased
maximum dose considered as not constituting an acute toxicity risk [4]: 0.32 mg siRNA/kg body weight
maximum dose considered as not constituting an acute toxicity risk [5]: 0.32 mg siRNA/kg body weight
PancO2 cell growth [6]: inhibited PancO2 cell growth to a similar extent as Panc1 cells
pIC50 [7]: 10.17
level of P-Akt [8]: decreased
expression of epithelial genes (E-Cadherin) [9]: augmented expression
expression of mesenchymal genes (Zeb1 and Slug) [9]: reduced expression
inhibition of Panc1 migration [10]: more than 30%
Akt phosphorylation [11]: induced
migration in scratch assay [12]: barely migrated
reduction in viability [2]: ~50%
